This note sets out measurements from PMC6458995, “MAP4K4 Inhibition Promotes Survival of Human Stem Cell-Derived Cardiomyocytes and Reduces Infarct Size In Vivo” (Cell Stem Cell, 2019).

One series concerns the target T1, GLK/MAP4K3 (Homo sapiens, UniProt Q8IVH8).
T1 sequence (Q8IVH8 1-894): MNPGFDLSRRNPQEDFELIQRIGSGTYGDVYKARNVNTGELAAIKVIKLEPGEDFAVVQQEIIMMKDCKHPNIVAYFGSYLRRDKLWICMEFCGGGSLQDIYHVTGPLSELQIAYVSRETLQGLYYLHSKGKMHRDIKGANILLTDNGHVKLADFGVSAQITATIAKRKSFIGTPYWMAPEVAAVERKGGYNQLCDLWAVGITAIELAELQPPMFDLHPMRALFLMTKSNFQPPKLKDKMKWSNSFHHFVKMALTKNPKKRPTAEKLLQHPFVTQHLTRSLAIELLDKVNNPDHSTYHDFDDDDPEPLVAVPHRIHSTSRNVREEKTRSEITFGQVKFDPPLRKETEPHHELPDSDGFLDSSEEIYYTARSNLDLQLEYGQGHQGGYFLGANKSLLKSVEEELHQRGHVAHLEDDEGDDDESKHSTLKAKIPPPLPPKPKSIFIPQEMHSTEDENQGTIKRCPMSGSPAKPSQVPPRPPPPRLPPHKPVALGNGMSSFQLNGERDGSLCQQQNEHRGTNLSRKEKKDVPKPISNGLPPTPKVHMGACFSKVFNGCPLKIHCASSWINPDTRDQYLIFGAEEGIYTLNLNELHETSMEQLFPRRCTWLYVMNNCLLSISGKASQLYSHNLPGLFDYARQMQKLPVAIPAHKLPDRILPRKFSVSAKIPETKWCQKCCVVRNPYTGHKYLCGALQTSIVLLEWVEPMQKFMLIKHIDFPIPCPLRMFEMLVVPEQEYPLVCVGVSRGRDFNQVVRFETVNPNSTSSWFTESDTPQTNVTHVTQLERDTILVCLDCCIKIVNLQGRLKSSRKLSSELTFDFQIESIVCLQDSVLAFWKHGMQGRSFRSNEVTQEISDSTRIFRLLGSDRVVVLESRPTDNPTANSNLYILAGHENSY
The experiment in a line: HTRF Transcreener ADP kinase assay. To be noted: for IC50: HTRF Transcreener ADP assay. The format is biochemical. As for the experimental part:
(§1) MAP4K4 kinase activity was monitored using the CisBio HTRF Transcreener ADP assay, a competitive immunoassay with a reproducible Z’ > 0.6. In the detection step, endogenous ADP and d2-labeled ADP compete for binding an anti-ADP monoclonal antibody labeled with Eu^3+ cryptate. A ratiometric fluorescent readout is used at 665 and 620 nm. […] Assays were run in Greiner low volume plates with a final reaction volume of 10 μl. Percent inhibition was calculated from 100% activity of MAP4K4 (DMSO only) and 0% activity (no enzyme added). Data were either reported as % inhibition at a single dose or as pIC50 values derived from dose response curves (pIC50 = -log[IC50]).
(§2) Kinase selectivity profiling was performed by the International Centre for Kinase Profiling, MRC Protein Phosphorylation and Ubiquitylation Unit (141 kinases; Premier Screen, http://www.kinase-screen.mrc.ac.uk), using a [γ-^33P]ATP filter binding assay ([Bain et al., 2007]). Compounds were screened at 1 μM. For key hits, pIC50 values were then determined by HTRF as above. More complete kinome profiling was performed by Reaction Biology (376 kinases). Stability in mouse and human liver microsomes was determined by Cyprotex.

A further series addresses KHS/MAP4K5 (Homo sapiens, UniProt Q9Y4K4). The experiment in a line: HTRF Transcreener ADP kinase assay. To be noted: for IC50: HTRF Transcreener ADP assay. The format is biochemical. As for the experimental part: as §1, §2
The target of another series is GSK3β (Homo sapiens, UniProt P49841). The experiment in a line: HTRF Transcreener ADP kinase assay. The format is biochemical. Conditions: for IC50: HTRF Transcreener ADP assay. As for the experimental part: as §1, §2
Chain of GSK3β (P49841 whole entry): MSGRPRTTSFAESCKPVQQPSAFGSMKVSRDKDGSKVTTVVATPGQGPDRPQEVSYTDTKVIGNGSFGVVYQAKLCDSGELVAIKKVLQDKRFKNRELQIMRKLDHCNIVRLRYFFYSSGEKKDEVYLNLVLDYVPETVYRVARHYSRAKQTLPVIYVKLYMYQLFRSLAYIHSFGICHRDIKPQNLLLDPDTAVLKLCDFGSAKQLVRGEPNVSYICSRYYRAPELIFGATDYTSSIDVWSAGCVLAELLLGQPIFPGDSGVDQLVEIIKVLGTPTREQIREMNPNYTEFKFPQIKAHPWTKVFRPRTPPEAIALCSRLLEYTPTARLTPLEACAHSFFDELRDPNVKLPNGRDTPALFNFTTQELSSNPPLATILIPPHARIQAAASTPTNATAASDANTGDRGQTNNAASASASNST
In another series the target is T2, GCK/MAP4K2 (Homo sapiens, UniProt Q12851).
T2 sequence (Q12851 1-820): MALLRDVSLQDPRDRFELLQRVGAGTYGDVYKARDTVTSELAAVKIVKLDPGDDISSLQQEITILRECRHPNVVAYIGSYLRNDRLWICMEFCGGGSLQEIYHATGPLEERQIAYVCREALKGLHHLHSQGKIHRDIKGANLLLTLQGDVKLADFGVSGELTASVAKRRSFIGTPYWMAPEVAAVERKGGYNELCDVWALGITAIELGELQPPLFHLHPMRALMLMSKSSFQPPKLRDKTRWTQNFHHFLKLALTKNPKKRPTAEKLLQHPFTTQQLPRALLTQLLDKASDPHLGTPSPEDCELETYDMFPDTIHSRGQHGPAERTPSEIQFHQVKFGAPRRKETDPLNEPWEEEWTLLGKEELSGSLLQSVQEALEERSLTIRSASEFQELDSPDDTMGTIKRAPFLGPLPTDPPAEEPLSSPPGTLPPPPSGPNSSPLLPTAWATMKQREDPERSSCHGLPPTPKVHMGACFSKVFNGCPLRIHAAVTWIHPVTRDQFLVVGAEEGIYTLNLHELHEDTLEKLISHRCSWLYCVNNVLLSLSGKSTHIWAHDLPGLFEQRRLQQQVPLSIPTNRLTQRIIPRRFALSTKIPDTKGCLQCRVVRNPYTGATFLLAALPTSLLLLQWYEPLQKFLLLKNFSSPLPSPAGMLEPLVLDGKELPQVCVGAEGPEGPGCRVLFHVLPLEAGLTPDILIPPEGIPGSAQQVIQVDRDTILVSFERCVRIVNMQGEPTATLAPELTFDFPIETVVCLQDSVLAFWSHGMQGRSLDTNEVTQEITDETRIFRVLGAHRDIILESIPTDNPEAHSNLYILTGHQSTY
The experiment in a line: HTRF Transcreener ADP kinase assay. To be noted: for IC50: HTRF Transcreener ADP assay. The format is biochemical. Here is the method: as §1, §2

The target in another series is ABL1 (Homo sapiens, UniProt P00519). The experiment in a line: HTRF Transcreener ADP kinase assay. The format is biochemical. To be noted: for IC50: HTRF Transcreener ADP assay. As for the experimental part: as §1, §2
Chain of ABL1 (P00519 whole entry): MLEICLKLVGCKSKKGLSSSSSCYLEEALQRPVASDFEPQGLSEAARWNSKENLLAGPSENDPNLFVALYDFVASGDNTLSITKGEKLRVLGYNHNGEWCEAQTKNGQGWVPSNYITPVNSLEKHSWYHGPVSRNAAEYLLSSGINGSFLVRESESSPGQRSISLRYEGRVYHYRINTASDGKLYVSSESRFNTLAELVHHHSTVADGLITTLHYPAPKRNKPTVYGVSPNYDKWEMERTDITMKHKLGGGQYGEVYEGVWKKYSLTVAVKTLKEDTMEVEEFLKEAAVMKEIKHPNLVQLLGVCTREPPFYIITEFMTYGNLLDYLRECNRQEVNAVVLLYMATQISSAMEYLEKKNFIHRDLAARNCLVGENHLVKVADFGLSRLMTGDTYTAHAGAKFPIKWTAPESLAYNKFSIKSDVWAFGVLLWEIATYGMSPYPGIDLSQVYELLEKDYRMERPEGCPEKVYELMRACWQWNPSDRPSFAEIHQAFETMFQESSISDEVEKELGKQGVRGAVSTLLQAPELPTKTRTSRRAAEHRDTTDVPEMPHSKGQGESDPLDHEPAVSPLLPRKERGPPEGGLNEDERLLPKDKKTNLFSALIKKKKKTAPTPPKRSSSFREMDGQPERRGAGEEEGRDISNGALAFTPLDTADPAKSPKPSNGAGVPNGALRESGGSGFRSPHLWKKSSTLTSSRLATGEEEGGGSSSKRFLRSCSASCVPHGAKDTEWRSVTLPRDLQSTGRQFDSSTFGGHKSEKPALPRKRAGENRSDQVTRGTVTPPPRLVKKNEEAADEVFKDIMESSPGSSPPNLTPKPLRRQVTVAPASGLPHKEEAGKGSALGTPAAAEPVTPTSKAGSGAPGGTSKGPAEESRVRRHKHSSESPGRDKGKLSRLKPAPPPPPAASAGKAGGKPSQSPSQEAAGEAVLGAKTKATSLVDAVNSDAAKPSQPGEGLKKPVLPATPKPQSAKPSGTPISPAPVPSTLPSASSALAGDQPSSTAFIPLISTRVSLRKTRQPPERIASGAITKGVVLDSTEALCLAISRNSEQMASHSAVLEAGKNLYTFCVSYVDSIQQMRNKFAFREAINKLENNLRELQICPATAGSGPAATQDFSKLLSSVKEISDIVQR
For another series, the target named is FLT3 (Homo sapiens, UniProt P36888). The series can be described thus: HTRF Transcreener ADP kinase assay. The format is biochemical. As for the experimental part:
as §1, §2

Another series deals with T3, Aurora B (Homo sapiens, UniProt Q96GD4).
T3 construct: lines 1-140) and Reaction Biology
T3 sequence (Q96GD4 whole entry): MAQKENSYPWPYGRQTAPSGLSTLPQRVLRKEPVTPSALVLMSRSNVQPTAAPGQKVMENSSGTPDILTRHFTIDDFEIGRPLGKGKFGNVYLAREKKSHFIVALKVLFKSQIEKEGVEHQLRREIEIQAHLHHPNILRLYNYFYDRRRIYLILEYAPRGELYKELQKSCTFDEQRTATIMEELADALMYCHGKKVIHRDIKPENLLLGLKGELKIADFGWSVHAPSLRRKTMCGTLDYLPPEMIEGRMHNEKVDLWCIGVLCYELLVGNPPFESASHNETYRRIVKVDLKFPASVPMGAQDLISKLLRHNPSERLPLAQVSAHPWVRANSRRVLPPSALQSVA
The experiment in a line: HTRF Transcreener ADP kinase assay. The format is biochemical. Here is the method: as §1, §2

Another series has as its target MLK1/MAP3K9 (Homo sapiens, UniProt P80192). The series can be described thus: HTRF Transcreener ADP kinase assay. The format is biochemical. To be noted: for IC50: HTRF Transcreener ADP assay. As for the experimental part:
as §1, §2

The target in the next series is MLK3/MAP3K11 (Homo sapiens, UniProt Q16584). The experiment in a line: HTRF Transcreener ADP kinase assay. The format is biochemical. Conditions: for IC50: HTRF Transcreener ADP assay. Here is the method:
as §1, §2

Series [1] is described as follows: Glutathione (GSH)-trapping. The format is in vitro ADME.

Chain of KHS/MAP4K5 (Q9Y4K4 whole entry): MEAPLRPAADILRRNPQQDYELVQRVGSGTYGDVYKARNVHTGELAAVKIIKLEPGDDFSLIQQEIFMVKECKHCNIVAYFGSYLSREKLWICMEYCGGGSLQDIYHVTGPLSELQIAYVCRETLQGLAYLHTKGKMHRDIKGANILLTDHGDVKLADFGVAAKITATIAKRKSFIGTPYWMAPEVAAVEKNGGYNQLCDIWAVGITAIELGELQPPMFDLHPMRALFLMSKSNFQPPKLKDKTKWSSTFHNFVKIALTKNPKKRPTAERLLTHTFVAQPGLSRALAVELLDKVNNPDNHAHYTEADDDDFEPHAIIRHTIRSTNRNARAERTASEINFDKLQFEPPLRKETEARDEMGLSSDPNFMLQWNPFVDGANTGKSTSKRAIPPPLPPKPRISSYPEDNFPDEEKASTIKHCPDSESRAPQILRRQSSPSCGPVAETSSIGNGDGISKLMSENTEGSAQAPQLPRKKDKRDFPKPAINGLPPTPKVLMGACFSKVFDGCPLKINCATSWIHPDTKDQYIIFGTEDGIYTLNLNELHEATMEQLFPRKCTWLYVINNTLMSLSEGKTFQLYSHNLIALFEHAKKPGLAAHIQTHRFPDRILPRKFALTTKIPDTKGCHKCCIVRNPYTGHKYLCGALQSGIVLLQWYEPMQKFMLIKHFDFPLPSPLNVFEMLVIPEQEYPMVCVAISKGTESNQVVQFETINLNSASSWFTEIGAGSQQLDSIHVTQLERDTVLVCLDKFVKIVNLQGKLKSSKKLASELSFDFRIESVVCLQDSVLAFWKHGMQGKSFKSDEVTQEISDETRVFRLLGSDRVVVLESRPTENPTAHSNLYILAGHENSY
Chain of MLK1/MAP3K9 (P80192 whole entry): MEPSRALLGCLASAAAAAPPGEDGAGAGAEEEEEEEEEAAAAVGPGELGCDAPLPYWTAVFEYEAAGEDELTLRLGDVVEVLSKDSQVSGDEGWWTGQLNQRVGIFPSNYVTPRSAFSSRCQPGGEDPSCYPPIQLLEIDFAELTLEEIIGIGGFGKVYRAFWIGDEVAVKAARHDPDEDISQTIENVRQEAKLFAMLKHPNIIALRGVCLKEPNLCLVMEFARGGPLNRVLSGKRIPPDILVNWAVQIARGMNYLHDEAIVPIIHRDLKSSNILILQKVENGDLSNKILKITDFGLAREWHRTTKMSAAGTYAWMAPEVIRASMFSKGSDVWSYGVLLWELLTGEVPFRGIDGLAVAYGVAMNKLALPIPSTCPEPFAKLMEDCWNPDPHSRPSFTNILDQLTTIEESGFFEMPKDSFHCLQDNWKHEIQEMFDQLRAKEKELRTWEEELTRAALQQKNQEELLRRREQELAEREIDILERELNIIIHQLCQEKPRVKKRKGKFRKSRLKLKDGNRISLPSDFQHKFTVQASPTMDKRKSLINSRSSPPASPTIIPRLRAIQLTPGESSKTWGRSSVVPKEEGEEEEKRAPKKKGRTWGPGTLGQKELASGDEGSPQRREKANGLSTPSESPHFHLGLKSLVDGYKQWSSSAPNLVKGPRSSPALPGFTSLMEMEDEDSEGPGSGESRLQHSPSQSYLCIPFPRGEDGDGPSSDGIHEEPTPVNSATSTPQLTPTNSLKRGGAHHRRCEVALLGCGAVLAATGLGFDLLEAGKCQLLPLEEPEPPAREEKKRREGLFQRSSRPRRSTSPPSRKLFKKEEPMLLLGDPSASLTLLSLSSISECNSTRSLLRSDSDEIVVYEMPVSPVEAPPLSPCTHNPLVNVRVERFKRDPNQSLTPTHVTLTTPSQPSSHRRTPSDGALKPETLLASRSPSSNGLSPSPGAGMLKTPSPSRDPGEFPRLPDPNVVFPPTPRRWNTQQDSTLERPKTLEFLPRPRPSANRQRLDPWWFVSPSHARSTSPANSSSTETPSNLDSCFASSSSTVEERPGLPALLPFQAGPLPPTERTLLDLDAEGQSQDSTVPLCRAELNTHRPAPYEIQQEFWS
Chain of MLK3/MAP3K11 (Q16584 whole entry): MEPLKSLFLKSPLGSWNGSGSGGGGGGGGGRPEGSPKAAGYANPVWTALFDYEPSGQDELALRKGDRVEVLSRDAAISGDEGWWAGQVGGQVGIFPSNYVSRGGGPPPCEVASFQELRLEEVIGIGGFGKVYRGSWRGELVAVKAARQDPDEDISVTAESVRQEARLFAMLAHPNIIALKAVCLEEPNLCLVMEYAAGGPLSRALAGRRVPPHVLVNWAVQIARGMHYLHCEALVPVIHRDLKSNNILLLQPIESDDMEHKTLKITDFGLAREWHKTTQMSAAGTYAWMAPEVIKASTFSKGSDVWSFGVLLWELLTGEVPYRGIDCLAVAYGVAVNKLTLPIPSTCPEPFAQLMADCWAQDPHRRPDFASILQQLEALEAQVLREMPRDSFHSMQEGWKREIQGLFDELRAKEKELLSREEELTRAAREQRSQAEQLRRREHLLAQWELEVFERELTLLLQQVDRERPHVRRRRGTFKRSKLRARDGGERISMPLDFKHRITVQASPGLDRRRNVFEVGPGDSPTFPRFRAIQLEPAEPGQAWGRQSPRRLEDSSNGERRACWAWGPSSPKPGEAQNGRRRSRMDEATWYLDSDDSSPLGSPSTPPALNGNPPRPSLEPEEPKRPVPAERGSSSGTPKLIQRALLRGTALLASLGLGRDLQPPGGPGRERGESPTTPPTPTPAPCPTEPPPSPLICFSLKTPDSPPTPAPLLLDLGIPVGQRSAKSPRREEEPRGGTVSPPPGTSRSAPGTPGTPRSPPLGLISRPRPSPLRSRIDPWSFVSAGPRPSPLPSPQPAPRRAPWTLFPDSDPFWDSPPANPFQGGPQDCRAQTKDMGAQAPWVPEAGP

With `Oc1ncnc2c1c(-c1ccccc1)cn2-c1ccccc1` [F1386-0303, 5,7-diphenyl-7H-pyrrolo[2,3-d]pyrimidin-4-ol], the IC50 against GLK/MAP4K3 (GLK/MAP4K3) was 30200 nM; at KHS/MAP4K5 (KHS/MAP4K5) it was 6030 nM; at GSK3β (GSK3β), 26900 nM; at GCK/MAP4K2 (GCK/MAP4K2), 1230 nM; on ABL1 (ABL1), 30200 nM; on FLT3 (HTRF Transcreener ADP assay), 2190 nM. Besides, the concentration for half-maximal inhibition (IC50) against Aurora B (HTRF Transcreener ADP assay) was 13200 nM; on MLK1/MAP3K9 (MLK1/MAP3K9), 525 nM; against MLK3/MAP3K11 (MLK3/MAP3K11), 813 nM.
As for `COCCOc1ccc(-c2cn(-c3ccccc3)c3nc[nH]c(=O)c23)cc1` [DMX-5804, 5-[4-(2-methoxy-ethoxy)-phenyl]-7-phenyl-3,7-dihydro-pyrrolo[2,3-d]pyrimidin-4-one], the “glutathione (GSH)-trapping” value in series [1] was “no off-target effect”. Moreover, the 50% inhibitory concentration (IC50) is 11200 nM on GLK/MAP4K3 (GLK/MAP4K3); 437 nM at KHS/MAP4K5 (KHS/MAP4K5); 21900 nM against GSK3β (GSK3β); 316 nM against GCK/MAP4K2 (GCK/MAP4K2); 1580 nM on ABL1 (ABL1); 64.6 nM on MLK1/MAP3K9 (MLK1/MAP3K9). This compound also had an IC50 on MLK3/MAP3K11 (MLK3/MAP3K11) of 102 nM. Moreover, the “Fold Selectivity” value came out at 3981 on GLK/MAP4K3 (GLK/MAP4K3 versus MAP4K4); 153 on KHS/MAP4K5 (KHS/MAP4K5 versus MAP4K4); 7762 at GSK3β (GSK3β versus MAP4K4); 112 at GCK/MAP4K2 (GCK/MAP4K2 versus MAP4K4); 560 on ABL1 (ABL1 versus MAP4K4); 23 on MLK1/MAP3K9 (MLK1/MAP3K9 versus MAP4K4). Moreover, the “Fold Selectivity” value at MLK3/MAP3K11 (MLK3/MAP3K11 versus MAP4K4) is given as 36. Also, the “DMX-5804 vs F1386-0303” value on GLK/MAP4K3 (ratio of fold selectivity, GLK/MAP4K3) came out at 4.57; at KHS/MAP4K5 (ratio of fold selectivity, KHS/MAP4K5), 0.88; on GSK3β (ratio of fold selectivity, GSK3β) it was 10.00; at GCK/MAP4K2 (ratio of fold selectivity, GCK/MAP4K2), 3.20; at ABL1 (ratio of fold selectivity, ABL1), 0.65; on FLT3 (ratio of fold selectivity), 18.22. Further, the “DMX-5804 vs F1386-0303” value at Aurora B (ratio of fold selectivity) came out at 1.47; at MLK1/MAP3K9 (ratio of fold selectivity, MLK1/MAP3K9), 1.53; on MLK3/MAP3K11 (ratio of fold selectivity, MLK3/MAP3K11), 1.57.
